Data taken from patent US20240139326A1, “METHACRYLAMIDES PROTEIN BINDERS AND USES THEREOF” (YEDA RESEARCH AND DEVELOPMENT CO. LTD., priority 2020, published 2024).
pIC50: −log10 of the molar value. Like-named read-outs stand apart in the source and are kept apart here.

Tests used:
physchem = details: 5 mM GSH in potassium phosphate buffer, pH 8
Mino cells = assay: In-gel fluorescence proteomic reactivity of alkyne probes; assay type: cell-based; details: Mino cells treated 2 h, clicked with TAMRA-azide
Procedure: The samples were incubated at 25 degrees for 2 hours.
Mino cells were treated for two hours with either DMSO, IA-alkyne, or 2a-c. The cells were lysed, labeled the alkynes via copper-catalyzed “click chemistry” with TAMRA (Tetramethylrhodamine)-azide, and imaged the adducts via in-gel fluorescence (FIG. 8B). […] This may be the result of cellular esterases that hydrolyze the ester, leaving an unreactive substituted acrylamide^26. All of the acrylamides were markedly less reactive than IA-alkyne.

BTK kinase domain [1] = biological target: T1, BTK kinase domain (Homo sapiens (Human), UniProt Q06187)
Procedure: (§2) The reaction mixtures, at room temperature for various times, were injected into the LC/MS. For data analysis, the raw spectra were deconvoluted using a 20000:40000 Da window and 1 Da resolution. The signal from masses 20000:30000 and 33000:40000 (which contained no peaks) was averaged and subtracted from the whole signal.

wild-type BTK = wild-type BTK (Homo sapiens (Human), UniProt Q06187); assay: In vitro kinase activity assay for BTK (Nanosyn); assay type: biochemical; details: for pIC50: 0.6 nM BTK, 5 μM ATP; for IC50: unit μM
Procedure: The reaction was initiated by 2-fold dilution into a solution containing 5 μM ATP and substrate.

BTK kinase domain [2] = biological target: T1, BTK kinase domain; assay: Kinetic labeling experiments of Ibrutinib derivatives with BTK (intact protein LC/MS); details: for BTK Substitution/Addition: mechanism of BTK labeling; for labeling of BTK through the substitution mechanism: within 30 minutes
Procedure: as §2

BTK [3] = biological target: T2, BTK (Homo sapiens (Human), UniProt Q06187); assay: Fluorescence intensity measurement of CoLDR turn-on probe with BTK; assay type: binding; details: 2 μM probe, 2 μM BTK
Procedure: (§1) Each condition was in triplicates in 20 mM Tris pH 8 50 mM NaCl for BTK and K-RAS^G12c, in 50 mM Tris pH 8.0, 100 mM NaCl for EGFR. fluorescent measurements were taken every 2 minutes for 2 hours for BTK and EGFR and every 10 minutes for 15 hours for K-RAS^G12c. […] K-Ras^G12C was expressed and purified as previously described^66, EGFR kinase domain was a generous gift from Prof. Michael Eck.
The fact that a specific leaving group is released as a function of selective binding of a target protein can be used to functionalize irreversible inhibitors, for example as turn-on fluorescent probes. To assess the applicability and generality of this approach three therapeutic targets were chosen for which acrylamide inhibitors are available: BTK, EGFR, and K-RAS^G12C as model systems. […] The rate of the reaction was […] by using 20:1 equivalents of protein:probe (FIG. 12). […] The release can also be inhibited by pre-incubation of BTK with Iodoacetamide alkyne (IAA; FIG. 13B).

BSA = BSA (Bos taurus (Bovine), UniProt P02769); assay: Turn-on fluorescence selectivity control with BSA; assay type: binding; details: 10 μM BSA with 2 μM 3j
BTK [4] = biological target: T2, BTK; assay: Turn-on chemiluminescence of probe 3k with BTK; assay type: binding
Procedure: Plate reader measurements were performed on Tecan Spark Control 10M fluorescent measurements using black 384 well plates with clear bottom.
Recently, adamantylidene-dioxetane based chemiluminescent turn-on probes for the sensing and imaging of enzymes, reactive oxygen species, and other analytes were reported^28-32 These probes, upon activation by analytes, release a phenolate-dioxetane intermediate which subsequently decomposes with the emission of a photon in the visible spectrum (FIG. 3). […] The chemiluminescence light emission profile of probe 3k (FIG. 15A, Example 1) upon activation with BTK (2 μM) was measured in the absence and presence of BTK (FIG. 15B). The kinetic profile in the presence of BTK was typical of a chemiluminescent probe with an initial signal was increased to a maximum within 20 minutes, followed by a slow decrease.

EGFR [5] = biological target: T3, EGFR (Homo sapiens (Human), UniProt P00533); assay: EGFR kinase activity assay; assay type: biochemical; details: read-out: IC50 against EGFR
EGFR [6] = biological target: T3, EGFR; assay: Fluorescence intensity measurement of CoLDR turn-on probe with EGFR; assay type: binding; details: 2 μM each
Procedure: as §1
Similarly, 4b (FIG. 11B, Example 1; afatinib derivative functionalized with coumarin) and 5a (FIG. 11C, Example 1; AMG-510 derivative functionalized with coumarin) were treated with EGFR and K-RAS^G12c respectively and measured the released coumarin fluorescence (FIG. 11E, 11F).

BTK kinase domain [7] = biological target: T1, BTK kinase domain; assay: Labeling experiments of Ibrutinib derivatives with BTK (ligand release, LC/MS); assay type: binding; details: BTK 2 μM, 10 min, 25° C., pH 8
Procedure: Binding experiments were performed in Tris 20 mM pH 8.0, 50 mM NaCl at room temperature. […] The reaction mixtures, at room temperature for various times, were injected into the LC/MS. For data analysis, the raw spectra were deconvoluted using a 20000:40000 Da window and 1 Da resolution. The labeling percentage for a compound was determined as the labeling of a specific compound (alone or together with other compounds) divided by the overall detected protein species.
To assess irreversible labeling and validate the proposed ligand release mechanism, the probes/compounds (2 μM) were incubated with recombinant BTK (2 μM) and monitored the reaction via intact protein liquid chromatography/mass spectrometry (LC/MS).

[8] = biological target: SARS-CoV-2 papain like protease (PL^pro) (Severe acute respiratory syndrome coronavirus 2 (2019-nCoV) (SARS-CoV-2), UniProt P0DTD1); assay: Labeling of PLpro (LC/MS); assay type: binding; details: 2 μM protein, 16h, pH 8
BTK [9] = biological target: T2, BTK; assay: Fluorescence intensity measurements of labeling probes with BTK; details: 4 μM competitor

T2 sequence (Q06187 2-659 limits assumed): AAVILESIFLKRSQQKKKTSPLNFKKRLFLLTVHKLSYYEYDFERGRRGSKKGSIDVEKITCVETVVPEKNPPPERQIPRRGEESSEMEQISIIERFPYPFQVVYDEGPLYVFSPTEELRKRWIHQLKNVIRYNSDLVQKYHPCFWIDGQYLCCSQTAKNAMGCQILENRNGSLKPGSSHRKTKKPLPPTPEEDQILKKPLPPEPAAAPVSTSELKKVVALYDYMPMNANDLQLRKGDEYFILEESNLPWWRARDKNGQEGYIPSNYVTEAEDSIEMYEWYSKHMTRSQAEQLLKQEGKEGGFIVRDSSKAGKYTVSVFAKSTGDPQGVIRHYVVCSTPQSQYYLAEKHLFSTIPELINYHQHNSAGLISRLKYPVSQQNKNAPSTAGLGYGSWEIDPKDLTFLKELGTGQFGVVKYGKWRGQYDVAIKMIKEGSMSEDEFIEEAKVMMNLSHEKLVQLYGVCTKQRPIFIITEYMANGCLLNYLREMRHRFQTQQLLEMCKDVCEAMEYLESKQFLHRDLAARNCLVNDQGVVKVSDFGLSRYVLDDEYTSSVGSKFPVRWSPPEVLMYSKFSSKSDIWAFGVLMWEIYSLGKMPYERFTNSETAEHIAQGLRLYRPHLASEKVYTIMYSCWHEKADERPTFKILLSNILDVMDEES
wild-type BTK, sequence (Q06187 whole entry, the tested form may be a part): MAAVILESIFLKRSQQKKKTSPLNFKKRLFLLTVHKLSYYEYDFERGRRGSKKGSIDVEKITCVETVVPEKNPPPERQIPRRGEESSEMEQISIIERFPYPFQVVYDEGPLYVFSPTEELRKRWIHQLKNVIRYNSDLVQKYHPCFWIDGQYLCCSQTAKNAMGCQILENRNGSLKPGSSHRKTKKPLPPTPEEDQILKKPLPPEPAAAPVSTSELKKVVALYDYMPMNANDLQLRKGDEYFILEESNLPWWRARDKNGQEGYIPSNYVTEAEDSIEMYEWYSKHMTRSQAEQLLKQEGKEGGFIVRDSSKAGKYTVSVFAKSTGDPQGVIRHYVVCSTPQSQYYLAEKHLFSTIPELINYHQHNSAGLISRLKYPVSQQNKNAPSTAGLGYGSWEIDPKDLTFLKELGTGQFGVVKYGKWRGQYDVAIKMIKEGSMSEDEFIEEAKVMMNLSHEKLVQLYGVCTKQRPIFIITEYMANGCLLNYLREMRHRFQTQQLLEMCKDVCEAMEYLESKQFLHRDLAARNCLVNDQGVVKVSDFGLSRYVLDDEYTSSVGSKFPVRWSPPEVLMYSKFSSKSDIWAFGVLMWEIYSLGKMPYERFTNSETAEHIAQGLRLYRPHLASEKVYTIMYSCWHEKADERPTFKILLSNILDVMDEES
T1 sequence (Q06187 402-655): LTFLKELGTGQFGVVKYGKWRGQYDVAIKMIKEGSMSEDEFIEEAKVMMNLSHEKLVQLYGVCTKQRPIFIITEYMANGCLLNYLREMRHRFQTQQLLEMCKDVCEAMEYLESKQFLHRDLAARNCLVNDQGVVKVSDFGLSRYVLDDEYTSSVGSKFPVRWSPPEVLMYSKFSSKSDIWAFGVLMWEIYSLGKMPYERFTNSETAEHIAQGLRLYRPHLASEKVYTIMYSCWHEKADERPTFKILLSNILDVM
T3 sequence (P00533 25-1210 limits assumed): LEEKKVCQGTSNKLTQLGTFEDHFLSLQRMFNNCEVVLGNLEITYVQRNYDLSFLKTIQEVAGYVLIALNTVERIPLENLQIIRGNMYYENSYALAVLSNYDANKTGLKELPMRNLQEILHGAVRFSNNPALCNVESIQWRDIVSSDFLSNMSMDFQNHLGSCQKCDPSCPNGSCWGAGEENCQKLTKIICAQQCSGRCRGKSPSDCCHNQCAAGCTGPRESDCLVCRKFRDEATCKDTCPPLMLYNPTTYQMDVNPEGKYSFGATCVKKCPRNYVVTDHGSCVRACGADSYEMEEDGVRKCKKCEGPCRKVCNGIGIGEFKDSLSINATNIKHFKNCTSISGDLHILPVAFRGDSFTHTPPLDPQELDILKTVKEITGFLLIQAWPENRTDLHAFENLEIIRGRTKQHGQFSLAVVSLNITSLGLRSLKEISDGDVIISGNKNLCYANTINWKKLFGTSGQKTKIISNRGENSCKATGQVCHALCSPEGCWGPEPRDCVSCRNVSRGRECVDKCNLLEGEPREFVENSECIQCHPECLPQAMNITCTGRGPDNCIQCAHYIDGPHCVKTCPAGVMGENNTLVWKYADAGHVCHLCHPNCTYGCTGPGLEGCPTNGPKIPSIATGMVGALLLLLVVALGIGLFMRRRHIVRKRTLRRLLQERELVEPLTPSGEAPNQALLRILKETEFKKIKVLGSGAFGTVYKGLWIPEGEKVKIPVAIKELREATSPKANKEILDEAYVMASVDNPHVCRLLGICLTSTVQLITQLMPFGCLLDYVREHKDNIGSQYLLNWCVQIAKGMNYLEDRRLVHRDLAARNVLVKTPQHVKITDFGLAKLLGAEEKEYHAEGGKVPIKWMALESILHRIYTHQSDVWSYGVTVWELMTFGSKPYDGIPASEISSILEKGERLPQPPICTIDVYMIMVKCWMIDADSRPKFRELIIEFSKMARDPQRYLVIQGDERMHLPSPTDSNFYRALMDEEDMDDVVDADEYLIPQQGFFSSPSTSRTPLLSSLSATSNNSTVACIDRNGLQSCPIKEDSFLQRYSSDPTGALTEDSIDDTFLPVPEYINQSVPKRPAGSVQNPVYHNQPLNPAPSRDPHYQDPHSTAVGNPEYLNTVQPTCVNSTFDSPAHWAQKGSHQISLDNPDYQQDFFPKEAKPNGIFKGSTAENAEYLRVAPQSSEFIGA
BSA, sequence (P02769 25-607 limits assumed): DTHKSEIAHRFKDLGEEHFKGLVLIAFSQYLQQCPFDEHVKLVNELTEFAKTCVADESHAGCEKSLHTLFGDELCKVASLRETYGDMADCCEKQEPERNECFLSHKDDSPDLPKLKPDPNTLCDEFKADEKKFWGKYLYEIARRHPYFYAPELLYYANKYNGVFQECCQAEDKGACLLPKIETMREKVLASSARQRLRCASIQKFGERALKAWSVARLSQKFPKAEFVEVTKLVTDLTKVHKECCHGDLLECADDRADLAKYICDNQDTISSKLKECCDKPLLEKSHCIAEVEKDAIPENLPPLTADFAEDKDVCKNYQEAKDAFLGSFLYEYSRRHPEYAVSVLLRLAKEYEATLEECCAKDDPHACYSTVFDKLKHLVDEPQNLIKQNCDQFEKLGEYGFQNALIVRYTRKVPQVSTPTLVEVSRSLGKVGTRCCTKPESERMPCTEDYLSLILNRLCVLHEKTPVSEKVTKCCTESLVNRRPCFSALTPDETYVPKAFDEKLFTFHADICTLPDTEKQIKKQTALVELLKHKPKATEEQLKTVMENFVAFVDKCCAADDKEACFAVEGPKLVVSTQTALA

SMILES: C=C(COC(=O)Oc1ccc([N+](=O)[O-])cc1)C(=O)NCc1ccccc1 [Compound 1j, 2-(benzylcarbamoyl)allyl (4-nitrophenyl) carbonate]
- half-life at 100 μM (physchem): 54 min

SMILES: C#CCCNC(=O)C(=C)COc1ccc2ccc(=O)oc2c1 [Compound 2a, N-(but-3-yn-1-yl)-2-(((2-oxo-2H-chromen-7-yl)oxy)methyl)acrylamide]
- proteomic reactivity (in-gel fluorescence) (Mino cells): slightly higher reactivity than 2b

SMILES: C#CCCNC(=O)C(=C)COC(=O)c1ccccc1 [Compound 2c, 2-(but-3-yn-1-ylcarbamoyl)allyl benzoate]
- proteomic reactivity (in-gel fluorescence) (Mino cells): completely inactive

SMILES: C=C(C)C(=O)N1CCC[C@@H](n2nc(-c3ccc(Oc4ccccc4)cc3)c3c(N)ncnc32)C1 [Compound 3a, (R)-1-(3-(4-amino-3-(4-phenoxyphenyl)-1H-pyrazolo[3,4-d]pyrimidin-1-yl)piperidin-1-yl)-2-methylprop-2-en-1-one]
- BHK t1/2 (BTK kinase domain [1]): >420 min

SMILES: C=C(CN1CCCCC1)C(=O)N1CCC[C@@H](n2nc(-c3ccc(Oc4ccccc4)cc3)c3c(N)ncnc32)C1 [Compound 3c, (R)-1-(3-(4-amino-3-(4-phenoxyphenyl)-1H-pyrazolo[3,4-d]pyrimidin-1-yl)piperidin-1-yl)-2-(piperidin-1-ylmethyl)prop-2-en-1-one]
- pIC50 (wild-type BTK): 10.00
- IC50 (wild-type BTK): < 100 µM
- BTK Substitution/Addition (BTK kinase domain [2]): exclusively through addition

SMILES: C=C(CN(C)c1ccccc1)C(=O)N1CCC[C@@H](n2nc(-c3ccc(Oc4ccccc4)cc3)c3c(N)ncnc32)C1 [Compound 3d, (R)-1-(3-(4-amino-3-(4-phenoxyphenyl)-1H-pyrazolo[3,4-d]pyrimidin-1-yl)piperidin-1-yl)-2-((methyl(phenyl)amino)methyl)prop-2-en-1-one]
- pIC50 (wild-type BTK): 8.25
- BHK t1/2 (BTK kinase domain [2]; BTK labeling, 2 μM compound and 2 μM BTK at room temperature): 47 min
- BTK Substitution/Addition (BTK kinase domain [2]): Substitution
- labeling of BTK through the substitution mechanism (BTK kinase domain [2]): 100%

SMILES: C=C(CNCc1ccccc1)C(=O)N1CCC[C@@H](n2nc(-c3ccc(Oc4ccccc4)cc3)c3c(N)ncnc32)C1 [Compound 3e, (R)-1-(3-(4-amino-3-(4-phenoxyphenyl)-1H-pyrazolo[3,4-d]pyrimidin-1-yl)piperidin-1-yl)-2-((benzylamino)methyl)prop-2-en-1-one]
- pIC50 (wild-type BTK): 10.00
- IC50 (wild-type BTK): < 100 µM
- BHK t1/2 (BTK kinase domain [1]; recombinant enzyme): <5 min
- BTK Substitution/Addition (BTK kinase domain [2]): exclusively through addition
- BTK labeling t1/2 faster than Ibrutinib (BTK kinase domain [2]; relative to Ibrutinib): 50%

SMILES: C=C(COC(C)=O)C(=O)N1CCC[C@@H](n2nc(-c3ccc(Oc4ccccc4)cc3)c3c(N)ncnc32)C1 [Compound 3g, (R)-2-(3-(4-amino-3-(4-phenoxyphenyl)-1H-pyrazolo[3,4-d]pyrimidin-1-yl)piperidine-1-carbonyl)allyl acetate]
- pIC50 (wild-type BTK): 10.00
- IC50 (wild-type BTK): < 100 µM
- BTK Substitution/Addition (BTK kinase domain [2]): Substitution
- labeling of BTK through the substitution mechanism (BTK kinase domain [2]): 100%

SMILES: C=C(COc1ccc2ccc(=O)oc2c1)C(=O)N1CCC[C@@H](n2nc(-c3ccc(Oc4ccccc4)cc3)c3c(N)ncnc32)C1 [Compound 3j, (R)-7-((2-(3-(4-amino-3-(4-phenoxyphenyl)-1H-pyrazolo[3,4-d]pyrimidin-1-yl)piperidine-1-carbonyl)allyl)oxy)-2H-chromen-2-one]
- increase of fluorescence intensity at 435 nm upon addition of BTK (BTK [3]): 30 fold
- time to fluorescence saturation (BTK [3]): ≤ 10 min
- fluorescence on incubation with BSA (BSA): did not result in increased fluorescence
- labeling of BTK through the substitution mechanism (BTK kinase domain [2]): 100%

SMILES: C=C(COc1c(Cl)cc(C2(OC)OOC23[C@H]2C[C@@H]4C[C@@H](C[C@H]3C4)C2)cc1/C=C/C(=O)OC)C(=O)N1CCC[C@@H](n2nc(-c3ccc(Oc4ccccc4)cc3)c3c(N)ncnc32)C1 (stereo partly drawn) [Compound 3k, Methyl (E)-3-(2-((2-((R)-3-(4-amino-3-(4-phenoxyphenyl)-1H-pyrazolo[3,4-d]pyrimidin-1-yl)piperidine-1-carbonyl)allyl)oxy)-3-chloro-5-((1r,3r,5R,7R)-4′-methoxyspiro[adamantane-2,3′-[1,2]dioxetan]-4′-yl)phenyl)acrylate]
- time to maximum chemiluminescence signal (BTK [4]; BTK 2 μM): ≤ 20 min

SMILES: C=C(COc1ccc2ccc(=O)oc2c1)C(=O)Nc1cc2c(Nc3ccc(F)c(Cl)c3)ncnc2cc1OC [Compound 4b, N-(4-((3-chloro-4-fluorophenyl)amino)-7-methoxyquinazolin-6-yl)-2-(((2-oxo-2H-chromen-7-yl)oxy)methyl)acrylamide]
- pIC50 (EGFR [5]): 8.48
- released coumarin fluorescence with EGFR (EGFR [6]): significant increase in fluorescence intensity

SMILES: C#CCCNC(=O)C(=C)CN1CCC(CNc2ncnc(N)c2-c2ccc(Oc3ccccc3)cc2)CC1 [Compound 7g]
- single labeling of BTK (BTK kinase domain [7]): 100%

SMILES: C=C(COC(=O)c1cc(OC)c(OC)c(OC)c1)C(=O)OCC [Compound 7t]
- single labeling of PL^pro [8]: 100%

SMILES: Nc1ncnc2c1c(-c1ccc(Oc3ccccc3)cc1)nn2[C@@H]1CCCNC1 [Ibr-H, reference compound]
- 3k luminescence after pre-incubation of BTK with competitor (BTK [4]; 2 μM, 0.5 h pre-incubation): significant decrease in the luminescence detected
- 7m turn-on fluorescence after pre-incubation of BTK with competitor (BTK [9]): eliminated the fluorescence
